Where “and” joins values, the source holds several entries; their conditions need not be identical. Equal values may be shown once. Read-outs that look alike come from different tables or passages of the source. Marks after values point to notes of the source that are not given here.
How the values were obtained:
[1] = test system: OR11A1, or the OR2M3 olfactory receptor; test: Geonol olfactory receptor antagonist cell-based screening, inhibitory dose-response vs geonol EC80; design: species or system human; settings: geonol at EC80; read-out: IC50
[2] = test system: geonol malodor (earthy/moss odor) perception; test: Sensory evaluation of geonol earthy/moss odor in iso-intense binary mixtures (glass jars); assay type: in vivo, human; settings: iso-intense binary mixture
From the text: Sensory Evaluation: Five 16 oz glass jars containing either REF (geonol only), geonol only control, antagonist only, mixture of geonol and isointense antagonist, or mixture of geonol and low intensity antagonist were presented to the panelists (last four samples were randomized across panelists). The panelists were asked to familiarize themselves with the earthy/moss odor quality from the REF jar first, then rate the pleasantness, earthy/moss odor intensity and overall odor intensity of the next four samples on a 0-10 linear scale. The inter-stimulus interval between the samples was two minutes to avoid adaptation.

[3] = test system: geonol earthy/moss odor perception; test: Human sensory performance of test compounds with and without geonol; assay type: in vivo; settings: for % Earthy/Moss Odor: Test Compound Only
Procedure, shortened: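 Panelists first learned the earthy/moss quality from a geonol-only reference, then rated pleasantness, earthy/moss intensity and overall intensity of geonol alone, antagonist alone, and geonol mixed with isointense or low-intensity antagonist on a 0-10 linear scale. Samples were presented in glass jars in randomized order with two-minute intervals.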

Olfr738 = Olfr738 (Mus musculus, UniProt L7N1X7); test: Indole antagonist dose-response, cAMP HTRF in HEK293T, vs indole EC80; assay type: cell-based; settings: vs indole EC80; for IC50: read-out: Olfr738 IC50
Olfr738, sequence (L7N1X7 entry or part of it): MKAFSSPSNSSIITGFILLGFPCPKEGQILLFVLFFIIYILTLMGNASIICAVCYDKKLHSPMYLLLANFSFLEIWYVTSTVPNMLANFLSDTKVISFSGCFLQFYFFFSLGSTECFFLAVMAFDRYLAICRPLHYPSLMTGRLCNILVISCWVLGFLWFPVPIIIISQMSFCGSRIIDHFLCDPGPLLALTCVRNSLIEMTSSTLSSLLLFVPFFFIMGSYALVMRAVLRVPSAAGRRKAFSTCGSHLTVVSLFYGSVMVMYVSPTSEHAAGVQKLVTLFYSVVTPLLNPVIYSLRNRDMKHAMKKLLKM
Method: (§1) Using a cell-based assay, mouse receptor Olfr738, Olfr739, Olfr740, Olfr741, 0fr742, Olfr743, Olfr744, Olfr746, Olfr748 and Olfr749 were tested in an HEK293T cell line wherein the endogenous RTP1 gene has been activated and the odorant receptor chaperone was expressed (described in WO2016201153A1). The receptor genes were tagged with a Flag-Rho tag combination. Receptor genes were co-transfected with the canonical olfactory human G-protein alpha subunit Golf gene. Co-expression of the human Golf activates the Gs transduction pathway that leads to an internal cAMP increase upon binding to the appropriate ligand (indole here). Odorant-induced activity was detected by measuring the cAMP increase in the cytosol using an HTRF based kit (CisBio, cAMP dynamic 2 kit, cat. 62AM4PEJ).

Olfr740 = Olfr740 (Mus musculus, UniProt E9PV79); test: as above; assay type: cell-based; settings: vs indole EC80; for IC50: read-out: Olfr740 IC50
Olfr740, sequence (E9PV79 entry or part of it): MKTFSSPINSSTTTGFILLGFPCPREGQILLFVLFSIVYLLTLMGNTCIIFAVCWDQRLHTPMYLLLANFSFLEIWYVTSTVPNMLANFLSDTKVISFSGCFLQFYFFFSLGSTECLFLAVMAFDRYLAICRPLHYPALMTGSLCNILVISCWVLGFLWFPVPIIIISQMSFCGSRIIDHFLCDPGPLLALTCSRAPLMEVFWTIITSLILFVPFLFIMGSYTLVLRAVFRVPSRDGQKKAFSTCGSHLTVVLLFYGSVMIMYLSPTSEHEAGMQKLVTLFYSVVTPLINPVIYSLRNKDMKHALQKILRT
Method: as §1

Olfr741 = Olfr741 (Mus musculus, UniProt L7N1Y5); test: as above; assay type: cell-based
Olfr741, sequence (L7N1Y5 entry or part of it): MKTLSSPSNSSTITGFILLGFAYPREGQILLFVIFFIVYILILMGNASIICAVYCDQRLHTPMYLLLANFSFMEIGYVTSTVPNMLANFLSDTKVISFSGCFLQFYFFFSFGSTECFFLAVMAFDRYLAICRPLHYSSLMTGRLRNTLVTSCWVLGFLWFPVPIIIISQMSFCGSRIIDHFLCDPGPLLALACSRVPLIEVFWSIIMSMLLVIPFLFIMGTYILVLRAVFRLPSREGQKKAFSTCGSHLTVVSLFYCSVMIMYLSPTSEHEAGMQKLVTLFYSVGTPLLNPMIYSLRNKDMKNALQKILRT
Method: as §1

Olfr742 = Olfr742 (Mus musculus, UniProt A2RTP5); test: as above; assay type: cell-based; settings: vs indole EC80; for IC50: read-out: Olfr742 IC50; for Emax: HEK-293T, read-out: Olfr742 % Inhibition
Olfr742, sequence (A2RTP5 entry or part of it): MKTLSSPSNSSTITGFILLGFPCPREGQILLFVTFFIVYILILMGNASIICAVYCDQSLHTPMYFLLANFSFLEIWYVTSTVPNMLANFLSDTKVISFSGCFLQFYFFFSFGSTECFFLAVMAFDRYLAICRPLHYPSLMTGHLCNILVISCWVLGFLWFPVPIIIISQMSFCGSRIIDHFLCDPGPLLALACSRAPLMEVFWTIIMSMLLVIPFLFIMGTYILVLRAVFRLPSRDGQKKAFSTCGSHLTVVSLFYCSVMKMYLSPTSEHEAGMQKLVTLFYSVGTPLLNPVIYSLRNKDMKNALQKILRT
Method: as §1

Olfr739 = Olfr739 (Mus musculus, UniProt E9Q1P0); test: as above; assay type: cell-based
Olfr739, sequence (E9Q1P0 entry or part of it): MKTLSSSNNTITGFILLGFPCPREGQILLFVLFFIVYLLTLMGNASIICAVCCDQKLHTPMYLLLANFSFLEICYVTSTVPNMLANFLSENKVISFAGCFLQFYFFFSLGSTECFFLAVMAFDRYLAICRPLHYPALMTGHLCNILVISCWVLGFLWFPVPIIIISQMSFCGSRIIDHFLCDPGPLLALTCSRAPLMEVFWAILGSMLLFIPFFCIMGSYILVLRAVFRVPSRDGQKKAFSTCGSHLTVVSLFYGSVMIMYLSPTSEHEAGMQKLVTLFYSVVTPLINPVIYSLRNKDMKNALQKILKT
Method: as §1, with “Functional dose-response experiments were performed to identify compounds capable of antagonizing indole-sensitive receptors previously identified (U.S. Pat. No. 9,914,760 B2). Using” for “Using”, “62AM4PEJ). The receptors were exposed to binary mixtures of increasing concentrations of the test compounds in the presence of a potent activation concentration of indole (EC80) for each receptor. […] All the compounds listed decreased the indole induced activity of at least one receptor.” for “62AM4PEJ).”

Olfr743 = Olfr743 (Mus musculus, UniProt L7N1Y2); test: as above; assay type: cell-based; settings: Table 23
Olfr743, sequence (L7N1Y2 entry or part of it): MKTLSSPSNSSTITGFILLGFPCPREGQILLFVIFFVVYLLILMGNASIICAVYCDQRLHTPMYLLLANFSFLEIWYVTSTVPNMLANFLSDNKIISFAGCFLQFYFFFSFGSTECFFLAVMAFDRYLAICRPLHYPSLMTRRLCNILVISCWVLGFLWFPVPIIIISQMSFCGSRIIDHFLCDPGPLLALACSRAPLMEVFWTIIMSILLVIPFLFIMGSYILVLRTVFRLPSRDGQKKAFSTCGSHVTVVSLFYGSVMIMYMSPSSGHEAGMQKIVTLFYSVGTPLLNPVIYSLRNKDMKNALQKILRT
Method: as §1, with “Functional dose-response experiments were performed to identify compounds capable of antagonizing indole-sensitive receptors previously identified (U.S. Pat. No. 9,914,760 B2). Using” for “Using”, “62AM4PEJ). The receptors were exposed to binary mixtures of increasing concentrations of the test compounds in the presence of a potent activation concentration of indole (EC80) for each receptor. […] All the compounds listed decreased the indole induced activity of at least one receptor.” for “62AM4PEJ).”

Olfr744 = biological target: T1, Olfr744 (Mus musculus, UniProt Q7TRM0); test: as above; assay type: cell-based; settings: Table 23
T1 construct: Flag; Rho tag; expressed in transfected cells
T1 sequence (Q7TRM0 1-323): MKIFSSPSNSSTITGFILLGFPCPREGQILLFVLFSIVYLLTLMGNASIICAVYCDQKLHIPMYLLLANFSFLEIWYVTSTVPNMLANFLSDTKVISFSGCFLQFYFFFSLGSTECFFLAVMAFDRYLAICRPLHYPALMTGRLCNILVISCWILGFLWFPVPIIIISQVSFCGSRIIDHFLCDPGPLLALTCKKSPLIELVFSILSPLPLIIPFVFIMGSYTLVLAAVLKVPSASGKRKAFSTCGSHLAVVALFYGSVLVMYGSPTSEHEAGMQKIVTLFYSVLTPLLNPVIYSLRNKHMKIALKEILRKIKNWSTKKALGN
Method: as §1, with “Functional dose-response experiments were performed to identify compounds capable of antagonizing indole-sensitive receptors previously identified (U.S. Pat. No. 9,914,760 B2). Using” for “Using”, “62AM4PEJ). The receptors were exposed to binary mixtures of increasing concentrations of the test compounds in the presence of a potent activation concentration of indole (EC80) for each receptor. […] All the compounds listed decreased the indole induced activity of at least one receptor.” for “62AM4PEJ).”

Olfr748 = Olfr748 (Mus musculus, UniProt E9Q9Z0); test: as above; assay type: cell-based; settings: Table 23
Olfr748, sequence (E9Q9Z0 entry or part of it): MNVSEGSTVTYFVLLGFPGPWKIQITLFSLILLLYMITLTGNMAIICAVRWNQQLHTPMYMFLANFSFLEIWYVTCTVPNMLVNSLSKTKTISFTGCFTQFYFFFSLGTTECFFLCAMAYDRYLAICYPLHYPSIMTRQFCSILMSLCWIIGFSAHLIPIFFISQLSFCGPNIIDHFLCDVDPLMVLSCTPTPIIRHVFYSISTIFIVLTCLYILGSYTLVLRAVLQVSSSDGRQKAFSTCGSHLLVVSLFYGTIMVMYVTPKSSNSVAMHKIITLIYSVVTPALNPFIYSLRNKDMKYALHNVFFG
Method: as §1

Olfr746 = biological target: T2, Olfr746 (Mus musculus, UniProt E9Q840); test: as above; assay type: cell-based; settings: Table 23
T2 construct: Flag; Rho tag; expressed in transfected cells
T2 sequence (E9Q840 1-314): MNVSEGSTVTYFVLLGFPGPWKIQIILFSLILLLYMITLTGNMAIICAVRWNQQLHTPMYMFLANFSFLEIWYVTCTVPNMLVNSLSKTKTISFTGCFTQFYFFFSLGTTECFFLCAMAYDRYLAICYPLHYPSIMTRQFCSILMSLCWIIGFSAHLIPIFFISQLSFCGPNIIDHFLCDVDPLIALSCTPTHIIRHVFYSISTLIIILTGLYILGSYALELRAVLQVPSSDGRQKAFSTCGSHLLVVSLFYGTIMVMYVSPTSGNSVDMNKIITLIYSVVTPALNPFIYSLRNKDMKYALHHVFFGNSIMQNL
Method: as §1, with “Functional dose-response experiments were performed to identify compounds capable of antagonizing indole-sensitive receptors previously identified (U.S. Pat. No. 9,914,760 B2). Using” for “Using”, “62AM4PEJ). The receptors were exposed to binary mixtures of increasing concentrations of the test compounds in the presence of a potent activation concentration of indole (EC80) for each receptor. […] All the compounds listed decreased the indole induced activity of at least one receptor.” for “62AM4PEJ).”

Olfr749 = biological target: T3, Olfr749 (Mus musculus, UniProt E9Q438); test: as above; assay type: cell-based; settings: Table 23
T3 construct: Flag; Rho tag; expressed in transfected cells
T3 sequence (E9Q438 1-313): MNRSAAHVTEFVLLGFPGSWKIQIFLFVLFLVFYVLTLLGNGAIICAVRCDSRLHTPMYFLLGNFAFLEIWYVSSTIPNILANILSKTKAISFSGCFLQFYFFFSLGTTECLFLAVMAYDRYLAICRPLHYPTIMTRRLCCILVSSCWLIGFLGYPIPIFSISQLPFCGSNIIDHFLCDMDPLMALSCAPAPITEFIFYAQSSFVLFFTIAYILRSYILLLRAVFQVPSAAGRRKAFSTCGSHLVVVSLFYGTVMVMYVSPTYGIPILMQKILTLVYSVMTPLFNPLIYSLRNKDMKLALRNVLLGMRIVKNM
Method: as §1, with “Functional dose-response experiments were performed to identify compounds capable of antagonizing indole-sensitive receptors previously identified (U.S. Pat. No. 9,914,760 B2). Using” for “Using”, “62AM4PEJ). The receptors were exposed to binary mixtures of increasing concentrations of the test compounds in the presence of a potent activation concentration of indole (EC80) for each receptor. […] All the compounds listed decreased the indole induced activity of at least one receptor.” for “62AM4PEJ).”

[4] = test system: 1-octen-3-ol receptors OR2W1, Olfr93, Olfr120, Olfr398; test: Antagonists of 1-octen-3-ol receptors (Example 11); assay type: cell-based, mouse and human; design: Inhibition(%): concentration or dose not given beside the values; settings: Table 19
[5] = Low Dilution Test Compound + Geonol (0.1%)
[6] = Medium Dilution Test Compound + Geonol (0.1%)
[7] = Table 22, second listing of the same compounds
[8] = Table 22, first listing (r7-r45)

Molecule | IC50 [1] | % Remaining in human sensory tests [2] | % Earthy/Moss Odor Remaining [3, 5] [%] | % Earthy/Moss Odor Remaining [3, 6] [%] | % Earthy/Moss Odor [3] [%] | Olfr738 % Inhibition (Olfr738; Table 22, first listing) [%] | IC50 (Olfr738; Table 22, first listing) [µM] | Olfr738 % Inhibition (Olfr738; [7]) [%] | Olfr740 % Inhibition (Olfr740; Table 22, first listing) [%] | IC50 (Olfr740; Table 22, first listing) [µM] | IC50 (Olfr741; Table 22, first listing) [µM] | Olfr741 % Inhibition (Olfr741; Table 22, first listing) [%] | Olfr742 % Inhibition (Olfr742; Table 22, first listing) [%] | IC50 (Olfr742; Table 22, first listing) [µM] | Olfr739 % Inhibition (Olfr739; Table 22, first listing) [%] | Olfr739 % Inhibition (Olfr739; [7]) [%] | IC50 (Olfr743) [µM] | Olfr743 % Inhibition (Olfr743) [%] | IC50 (Olfr744) [µM] | Olfr744 % Inhibition (Olfr744) [%] | other results
6(8)-ISOPROPYLQUINOLINE [isopropyl quinoline] | 400 µM | 110% | 99.60 | 104.70 | 54.70 | 20.66 | 120 | 39.62 | 148.06 | 40.9 | 91.6 | 54.55 | 72.34 | 86.6 | 74.96 | 116.59 | 119 | 39.62 | 102 | 116.59 | IC50 (Olfr739; Table 22, first listing): 61.3 µM
1-(3,3-dimethylcyclohexen-1-yl)pent-4-en-1-one; 1-(5,5-dimethylcyclohexen-1-yl)pent-4-en-1-one | 111 µM and 148 µM | 58* % | 85.80 | 72.30 | 34.50 | 33.49 | 6.29 | 59.11 | 179.31 | 1.68 | 131 | 124.57 | 146.91 | 4.3 | – | – | 210 | 59.11 | – | – | Olfr740 % Inhibition (Olfr740; [7]): 94.28%; IC50 (Olfr741; [7]): 81.6 µM; Olfr741 % Inhibition (Olfr741; [7]): 66.47%; Olfr742 % Inhibition (Olfr742; [7]): 90.61%; IC50 (Olfr748): 81.6 µM; Olfr748 % Inhibition (Olfr748): 66.47%; IC50 (Olfr746): 89.4 µM; Olfr746 % Inhibition (Olfr746): 94.28%; IC50 (Olfr749): 46.2 µM; Olfr749 % Inhibition (Olfr749): 90.61%
c1nc2c(o1)CCCCCCCCCC2 [4,5,6,7,8,9,10,11,12,13-decahydrocyclododeca[d][1,3]oxazole] | – | – | – | – | – | 93.54 | – | 31.68 | – | – | 33.7 | 62.10 | – | – | 61.91 | 38.37 | 58.9 | 31.68 | 117 | 38.37 | IC50 [4]: 38 µM; Inhibition(%) [4]: 77%; IC50 (Olfr738; [8]): 9.26 µM; Emax (Olfr740; HEK-293T, Table 22, first listing, read-out: Olfr740 % Inhibition): 102%; IC50 (Olfr740; [8]): 5.52 µM; IC50 (Olfr741; [7]): 216 µM; Olfr741 % Inhibition (Olfr741; [7]): 12.61%; Emax (Olfr742; Table 22, first listing): 59.7%; Emax (Olfr742; [7]): 57.9%; IC50 (Olfr742; [8]): 26.8 µM; IC50 (Olfr748): 216 µM; Olfr748 % Inhibition (Olfr748): 12.61%; IC50 (Olfr739; [8]): 24.1 µM; IC50 (Olfr749): 70 µM; Olfr749 % Inhibition (Olfr749): 57.85%

— US20230233425A1, “USE OF VOLATILE COMPOSITIONS TO LIMIT OR ELIMINATE THE PERCEPTION OF MALODOR” (Firmenich SA, priority 2017, published 2023)
